Test [1] has as its system patients with diabetic macular edema. In words: Change in intraocular pressure from baseline, Compound 1 BID at varying doses, 28 Day EOT (FIG. 1). Type of test: in vivo, human. As to conditions: doses greater than 15 mg BID. The protocol: The difference in IOP was determined at the end of the trial, which was 28 days after treatment began (28 Day EOT). Changes in IOP were determined both in the study eye and the fellow eye.

Test [2] in a line: Intraocular pressure at Baseline and Months 1-3, Compound 1 with sham or RBZ, or placebo with RBZ (TABLE 1, FIG. 2). The class given is in vivo. The protocol:
The difference in IOP was determined relative to a pre-treatment baseline (Base) at months 1, 2, and 3 (M1-M3). Intraocular pressure was determined in the study eye in millimeters of mercury (mmHg).
The difference in IOP was determined relative to a pre-treatment Baseline at Months 1, 2, and 3. Intraocular pressure was determined in the study eye/fellow eye in mmHg.

On to `COC(=O)N[C@@H](Cc1ccccc1)C(=O)N[C@@H](Cc1ccc(NS(=O)(=O)O)cc1)c1csc(-c2cccs2)n1` [Compound 1], for which the “effect on intraocular pressure (IOP) relative to pre-treatment baseline” value in test [1] is on record as “decreased IOP”. Further, the “IOP, fellow eye” value in test [2] (Month 1) turned out to be 14.5 mmHg; in test [2] (Month 2), 14.3 mmHg; in test [2] (Month 3), 14.0 mmHg; in test [2] (pre-treatment Baseline), 15.4 mmHg. Also, the “IOP, study eye” value in test [2] (Month 1) worked out at 14.8 mmHg; in test [2] (Month 2), 14.4 mmHg; in test [2] (Month 3), 14.3 mmHg; in test [2] (pre-treatment Baseline), 15.8 mmHg.
